Measured values from patent US10597388B2, “Pyridazinone herbicides” (FMC CORPORATION, priority 2014, dated 2020).

Tests used:
Test in all cases: Test C greenhouse herbicide test, pre- and postemergence
Format in all cases: in vivo
[1] = system: soybean (Glycine max)
Method in brief: (§1)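 Two application timings: at sowing into a soil/sand blend, and on 2–18 cm seedlings in peat-vermiculite potting mix. A non-phytotoxic, surfactant-containing solvent carried the compounds. Plants were compared with controls and rated visually on 0–100 after 13–15 d.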

[2] = system: blackgrass (Alopecurus myosuroides)
Method in brief: as §1

[3] = system: barnyardgrass (Echinochloa crus-galli)
Method in brief: as §1

[4] = system: corn (Zea mays)
Method in brief: as §1

[5] = system: wheat (winter wheat, Triticum aestivum)
Method in brief: as §1

[6] = system: galium (catchweed bedstraw, Galium aparine)
Method in brief: as §1

[7] = system: johnsongrass (Sorghum halepense)
Method in brief: as §1

[8] = system: velvetleaf (Abutilon theophrasti)
Method in brief: as §1

[9] = system: crabgrass, large (large crabgrass, Digitaria sanguinalis)
Method in brief: as §1

[10] = system: nutsedge, yellow (yellow nutsedge, Cyperus esculentus)
Method in brief: as §1

[11] = system: ryegrass, Italian (Italian ryegrass, Lolium multiflorum)
Method in brief: as §1

[12] = system: foxtail, giant (giant foxtail, Setaria faberii)
Method in brief: as §1

[13] = Postemergence, 31 g ai/ha, scale 0 to 100 (0 no effect, 100 complete control)
[14] = Postemergence, 125 g ai/ha, scale 0 to 100, 0 is no effect, 100 is complete control
[15] = Postemergence, 250 g ai/ha, scale 0 to 100, 0 no effect, 100 complete control, 13 to 15 d
[16] = Preemergence, 31 g ai/ha, scale 0 to 100, 0 is no effect, 100 is complete control
[17] = Preemergence, 62 g ai/ha, scale 0 to 100, 0 is no effect, 100 is complete control
[18] = Preemergence, 125 g ai/ha, scale 0 to 100, 0 is no effect, 100 is complete control
[19] = Preemergence, 250 g ai/ha, scale 0 to 100, 0 no effect, 100 complete control
[20] = postemergence, 62 g ai/ha, scale 0 to 100, 0 no effect, 100 complete control

Cc1ccc2ccccc2c1-c1c(O)c(C(F)(F)F)nn(C)c1=O [Compound 102]
Plant response rating, Soybean [1, 13]: 0 | Plant response rating, Soybean [1, 14]: 10 | Plant response rating, Soybean [1, 15]: 10 | Plant response rating, Soybean [1, 16]: 0 | Plant response rating, Soybean [1, 17]: 5 | Plant response rating, Soybean [1, 18]: 5 | Soybean plant response rating [1, 19]: 5 | Plant response rating, Blackgrass [2, 13]: 0 | Plant response rating, Blackgrass [2, 14]: 5 | Plant response rating, Blackgrass [2, 15]: 10 | Plant response rating, Blackgrass [2, 16]: 0 | Plant response rating, Blackgrass [2, 17]: 50 | Plant response rating, Blackgrass [2, 18]: 45 | Blackgrass plant response rating [2, 19]: 70 | Blackgrass plant response rating [2, 20]: 5 | Plant response rating, Barnyardgrass [3, 13]: 20 | Plant response rating, Barnyardgrass [3, 14]: 35 | Plant response rating, Barnyardgrass [3, 15]: 40 | Plant response rating, Barnyardgrass [3, 16]: 5 | Plant response rating, Barnyardgrass [3, 17]: 10 | Plant response rating, Barnyardgrass [3, 18]: 30 | Barnyardgrass plant response rating [3, 19]: 85 | Barnyardgrass plant response rating [3, 20]: 20 | Plant response rating, Corn [4, 13]: 0 | Plant response rating, Corn [4, 14]: 10 | Plant response rating, Corn [4, 15]: 10 | Plant response rating, Corn [4, 16]: 5 | Plant response rating, Corn [4, 17]: 10 | Plant response rating, Corn [4, 18]: 20 | Corn plant response rating [4, 19]: 30 | Corn plant response rating [4, 20]: 0 | Plant response rating, Wheat [5, 13]: 0 | Plant response rating, Wheat [5, 14]: 5 | Plant response rating, Wheat [5, 15]: 5 | Plant response rating, Wheat [5, 16]: 0 | Plant response rating, Wheat [5, 17]: 5 | Wheat plant response rating [5, 19]: 25 | Plant response rating, Galium [6, 13]: 90 | Plant response rating, Galium [6, 14]: 95 | Plant response rating, Galium [6, 15]: 95 | Plant response rating, Galium [6, 18]: 95 | Galium plant response rating [6, 19]: 95 | Plant response rating, Johnsongrass [7, 13]: 0 | Plant response rating, Johnsongrass [7, 14]: 0 | Plant response rating, Johnsongrass [7, 15]: 10 | Plant response rating, Johnsongrass [7, 16]: 0 | Plant response rating, Johnsongrass [7, 17]: 0 | Plant response rating, Johnsongrass [7, 18]: 0 | Johnsongrass plant response rating [7, 19]: 0 | Plant response rating, Velvetleaf [8, 13]: 30 | Plant response rating, Velvetleaf [8, 14]: 100 | Plant response rating, Velvetleaf [8, 15]: 100 | Plant response rating, Velvetleaf [8, 16]: 65 | Plant response rating, Velvetleaf [8, 17]: 85 | Plant response rating, Velvetleaf [8, 18]: 85 | Velvetleaf plant response rating [8, 19]: 100 | Plant response rating, Crabgrass, Large [9, 13]: 5 | Plant response rating, Crabgrass, Large [9, 14]: 20 | Plant response rating, Crabgrass, Large [9, 15]: 15 | Plant response rating, Crabgrass, Large [9, 16]: 0 | Plant response rating, Crabgrass, Large [9, 17]: 5 | Plant response rating, Crabgrass, Large [9, 18]: 30 | Crabgrass, Large plant response rating [9, 19]: 55 | Crabgrass, Large plant response rating [9, 20]: 10 | Plant response rating, Nutsedge, Yellow [10, 13]: 20 | Plant response rating, Nutsedge, Yellow [10, 14]: 60 | Plant response rating, Nutsedge, Yellow [10, 15]: 75 | Plant response rating, Nutsedge, Yellow [10, 16]: 15 | Plant response rating, Nutsedge, Yellow [10, 17]: 70 | Plant response rating, Nutsedge, Yellow [10, 18]: 75 | Nutsedge, Yellow plant response rating [10, 19]: 75 | Plant response rating, Ryegrass, Italian [11, 13]: 0 | Plant response rating, Ryegrass, Italian [11, 14]: 25 | Plant response rating, Ryegrass, Italian [11, 15]: 30 | Plant response rating, Ryegrass, Italian [11, 16]: 15 | Plant response rating, Ryegrass, Italian [11, 17]: 25 | Plant response rating, Ryegrass, Italian [11, 18]: 50 | Ryegrass, Italian plant response rating [11, 19]: 70 | Plant response rating, Foxtail, Giant [12, 13]: 20 | Plant response rating, Foxtail, Giant [12, 14]: 60 | Plant response rating, Foxtail, Giant [12, 15]: 75 | Plant response rating, Foxtail, Giant [12, 16]: 30 | Plant response rating, Foxtail, Giant [12, 17]: 75 | Plant response rating, Foxtail, Giant [12, 18]: 85 | Foxtail, Giant plant response rating [12, 19]: 90
